Data from patent US7253192B2, “Phenyl derivatives comprising an acetylene group” (Hoffmann-La Roche Inc., priority 2004, dated 2007).

Key:
PPARα = target: T1, PPARα (Homo sapiens, UniProt Q07869); experiment: Radioligand binding assay (SPA), PPARα receptor binding; settings: GST-PPARα-LBD fusion protein, scintillation proximity radioligand binding
T1 construct: PPARα (aa 167 to 469); made in house; host or cells: E. coli BL21 (pLysS)
T1 sequence (Q07869 167-468 limits assumed): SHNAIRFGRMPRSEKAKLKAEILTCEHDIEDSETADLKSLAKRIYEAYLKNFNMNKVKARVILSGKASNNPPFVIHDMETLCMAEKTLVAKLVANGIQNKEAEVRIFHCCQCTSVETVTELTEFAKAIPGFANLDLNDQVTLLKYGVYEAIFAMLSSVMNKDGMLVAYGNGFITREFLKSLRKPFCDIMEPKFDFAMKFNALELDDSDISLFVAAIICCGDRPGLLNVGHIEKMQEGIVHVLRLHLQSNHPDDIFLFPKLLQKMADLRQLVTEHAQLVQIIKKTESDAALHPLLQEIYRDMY
Description: (§1) Full-length cDNA clones for humans PPARδ and PPARα and mouse PPARγ were obtained by RT-PCR from human adipose and mouse liver cRNA, respectively, cloned into plasmid vectors and verified by DNA sequencing. Bacterial and mammalian expression vectors were constructed to produce glutathione-s-transferase (GST) and Gal4 DNA binding domain proteins fused to the ligand binding domains (LBD) of PPARδ (aa 139 to 442), PPARγ (aa 174 to 476) and PPARα (aa 167 to 469). To accomplish this, the portions of the cloned sequences encoding the LBDs were amplified from the full-length clones by PCR and then subcloned into the plasmid vectors. Final clones were verified by DNA sequence analysis.
(§2) Induction, expression, and purification of GST-LBD fusion proteins were performed in E. coli strain BL21 (pLysS) cells by standard methods (Ref: Current Protocols in Molecular Biology, Wiley Press, edited by Ausubel et al.).
PPARα receptor binding was assayed in TKE50 (50 mM Tris-HCl, pH 8, 50 mM KCl, 2 mM EDTA, 0.1 mg/ml fatty acid-free BSA and 10 mM DTT). For each 96 well reaction an 140 ng equivalent of GST-PPARα-LBD fusion protein was bound to 10 μg SPA beads (PharmaciaAmersham) in a final volume of 50 μl by shaking. The resulting slurry was incubated for 1 h at RT and centrifuged for 2 min at 1300 g. The supernatant containing unbound protein was removed and the semidry pellet containing the receptor-coated beads was resolved in 50 μl of TKE. For radioligand binding e.g. 10000 dpm of 2(S)-(2-benzoyl-phenylamino)-3-{4-[1,1-ditritio-2-(5-methyl-2-phenyl-oxazol-4-yl)-ethoxy]-phenyl}-propionic acid or 2,3-ditritio-2(S)-methoxy-3-{4-[2-(5-methyl-2-phenyl-oxazol-4-yl)-ethoxy]-benzo [b]thiophen-7-yl}-propionic acid in 50 ul were added, the reaction incubated at RT for 1 h and scintillation proximity counting performed. All binding assays were performed in 96 well plates and the amount of bound ligand measured on a Packard TopCount using OptiPlates (Packard). Nonspecific binding was determined in the presence of 10^−4 M unlabelled compound. […]

PPARγ = target: T2, PPARγ (Mus musculus, UniProt P37238); experiment: Radioligand binding assay (SPA), PPARγ receptor binding; settings: GST-PPARγ-LBD fusion protein, scintillation proximity radioligand binding
T2 construct: PPARγ (aa 174 to 476); made in house; host or cells: E. coli BL21 (pLysS)
T2 sequence (P37238 204-505): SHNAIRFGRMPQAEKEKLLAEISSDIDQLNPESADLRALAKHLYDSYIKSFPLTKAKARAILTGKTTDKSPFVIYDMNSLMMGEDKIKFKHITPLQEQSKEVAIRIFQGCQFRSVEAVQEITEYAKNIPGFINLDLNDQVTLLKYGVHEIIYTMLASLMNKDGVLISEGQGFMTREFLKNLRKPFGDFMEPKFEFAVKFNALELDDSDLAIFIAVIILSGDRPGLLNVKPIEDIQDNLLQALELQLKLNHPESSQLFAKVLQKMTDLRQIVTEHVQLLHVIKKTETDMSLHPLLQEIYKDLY
Description: as §1, §2
PPARγ receptor binding was assayed in TKE50 (50 mM Tris-HCl, pH 8, 50 mM KCl, 2 mM EDTA, 0.1 mg/ml fatty acid-free BSA and 10 mM DTT). For each 96 well reaction an 140 ng equivalent of GST-PPARγ-LBD fusion protein was bound to 10 μg SPA beads (PharmaciaAmersham) in a final volume of 50 μl by shaking. The resulting slurry was incubated for 1 h at RT and centrifuged for 2 min at 1300 g. The supernatant containing unbound protein was removed and the semidry pellet containing the receptor-coated beads was resolved in 50 ul of TKE. For radioligand binding e.g. 10000 dpm 2(S)-(2-benzoyl-phenylamino)-3-{4-[1,1-ditritio-2-(5-methyl-2-phenyl-oxazol-4-yl)-ethoxy]-phenyl}-propionic acid in 50 μl were added, the reaction incubated at RT for 1 h and scintillation proximity counting performed. All binding assays were performed in 96 well plates and the amount of bound ligand measured on a Packard TopCount using OptiPlates (Packard). Nonspecific binding was determined in the presence of 10^−4 M unlabelled compound. Dose response curves were done in triplicates within a range of concentration from 10^−10 M to 10^−4 M.

PPARδ = target: T3, PPARδ (Homo sapiens, UniProt Q03181); experiment: Radioligand binding assay (SPA), PPARδ receptor binding; settings: GST-PPARδ-LBD fusion protein, scintillation proximity radioligand binding
T3 construct: PPARδ (aa 139 to 442); made in house; host or cells: E. coli BL21 (pLysS)
T3 sequence (Q03181 139-441 limits assumed): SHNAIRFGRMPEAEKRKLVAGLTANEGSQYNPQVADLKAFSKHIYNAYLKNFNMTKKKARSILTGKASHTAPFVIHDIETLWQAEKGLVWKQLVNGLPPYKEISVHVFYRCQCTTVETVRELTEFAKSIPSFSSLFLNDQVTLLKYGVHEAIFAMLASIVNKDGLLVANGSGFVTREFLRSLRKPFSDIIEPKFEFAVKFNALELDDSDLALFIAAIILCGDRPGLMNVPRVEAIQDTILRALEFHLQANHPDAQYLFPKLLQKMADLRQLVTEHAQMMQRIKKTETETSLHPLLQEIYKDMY
Description: as §1, §2
PPARδ receptor binding was assayed in HNM10 (50 mM Hepes, pH 7.4, 10 mM NaCl, 5 mM MgCl2, 0.15 mg/ml fatty acid-free BSA and 15 mM DTT). For each 96 well reaction a 500 ng equivalent of GST-PPARδ-LBD fusion protein and radioligand, e.g. 20000 dpm {2-methyl-4-[4-methyl-2-(4-trifluoromethyl-phenyl)-thiazol-5-yl-ditritiomethylsulfanyl]-phenoxy}-acetic acid, was bound to 10 μg SPA beads (PharmaciaAmersham) in a final volume of 50 μl by shaking. The resulting slurry was incubated for 1 h at RT and centrifuged for 2 min at 1300 g. The supernatant containing unbound protein was removed and the semidry pellet containing the receptor-coated beads was resuspended in 50 μl of HNM. Radioligand was added and the reaction incubated at RT for 1 h and scintillation proximity counting performed in the presence of test compounds was determined. All binding assays were performed in 96 well plates and the amount of bound ligand was measured on a Packard TopCount using OptiPlates (Packard). Dose response curves were done in triplicates within a range of concentration from 10^−10 M to 10^−4 M.

IC50 (PPARα) | IC50 (PPARγ) | IC50 (PPARδ) | melting point | Compound
14 nM | > 10000 nM | 39 nM | 94 to 95 °C | Cc1cc(SCCCC#Cc2ccc(OC(F)(F)F)cc2)ccc1OCC(=O)O [Example 4, {2-Methyl-4-[5-(4-trifluoromethoxy-phenyl)-pent-4-ynylsulfanyl]-phenoxy}-acetic acid]
 |  |  | 130 to 131 °C | Cc1cc(SCC#Cc2ccc(C(F)(F)F)cc2)ccc1OCC(=O)O [Example 5, {2-Methyl-4-[3-(4-trifluoromethyl-phenyl)-prop-2-ynylsulfanyl]-phenoxy}-acetic acid]
 |  |  | 81 to 82 °C | Cc1cc(SCC#Cc2cccc(C(F)(F)F)c2)ccc1OCC(=O)O [Example 6, {2-Methyl-4-[3-(3-trifluoromethyl-phenyl)-prop-2-ynylsulfanyl]-phenoxy}-acetic acid]
 |  |  | 95 to 97 °C | Cc1cc(SCC#Cc2ccccc2C(F)(F)F)ccc1OCC(=O)O [Example 7, {2-Methyl-4-[3-(2-trifluoromethyl-phenyl)-prop-2-ynylsulfanyl]-phenoxy}-acetic acid]
 |  |  | 106 to 108 °C | Cc1cc(SCC#Cc2ccc(Cl)cc2)ccc1OCC(=O)O [Example 8, {4-[3-(4-Chloro-phenyl)-prop-2-ynylsulfanyl]-2-methyl-phenoxy}-acetic acid]
 |  |  | 143 to 144 °C | COc1ccc(C#CCSc2ccc(OCC(=O)O)c(C)c2)cc1 [Example 9, {4-[3-(4-Methoxy-phenyl)-prop-2-ynylsulfanyl]-2-methyl-phenoxy}-acetic acid]
 |  |  | 90 to 92 °C | Cc1cc(SCC#Cc2ccccc2)ccc1OCC(=O)O [Example 10, [2-Methyl-4-(3-phenyl-prop-2-ynylsulfanyl)-phenoxy]-acetic acid]
 |  |  | 129 to 130 °C | Cc1cc(SCCC#Cc2ccc(C(F)(F)F)cc2)ccc1OCC(=O)O [Example 12, {2-Methyl-4-[4-(4-trifluoromethyl-phenyl)-but-3-ynylsulfanyl]-phenoxy}-acetic acid]
21 nM | > 10000 nM | 120 nM | 90 to 91 °C (dec.) | Cc1cc(OCCCC#Cc2ccc(OC(F)(F)F)cc2)ccc1OC(C)(C)C(=O)O [Example 13, 2-Methyl-2-{2-methyl-4-[5-(4-trifluoromethoxy-phenyl)-pent-4-ynyloxy]-phenoxy}-propionic acid]
 |  |  | 114 to 115 °C (dec.) | Cc1cc(OCCCC#Cc2ccc(C(F)(F)F)cc2)ccc1OC(C)(C)C(=O)O [Example 14, 2-Methyl-2-{2-methyl-4-[5-(4-trifluoromethyl-phenyl)-pent-4-ynyloxy]-phenoxy}-propionic acid]
 |  |  | 119 to 120 °C (dec.) | Cc1cc(OCCCC#Cc2ccc(Cl)cc2)ccc1OC(C)(C)C(=O)O [Example 15, 2-{4-[5-(4-Chloro-phenyl)-pent-4-ynyloxy]-2-methyl-phenoxy}-2-methyl-propionic acid]
18 nM | > 10000 nM | 203 nM | 62 to 71 °C (dec.) | Cc1cc(OCCC#Cc2ccc(OC(F)(F)F)cc2)ccc1OC(C)(C)C(=O)O [Example 17, 2-Methyl-2-{2-methyl-4-[4-(4-trifluoromethoxy-phenyl)-but-3-ynyloxy]-phenoxy}-propionic acid]
 |  |  | 68 to 69 °C (dec.) | Cc1cc(OCCC#Cc2ccc(Cl)cc2)ccc1OC(C)(C)C(=O)O [Example 18, 2-{4-[4-(4-Chloro-phenyl)-but-3-ynyloxy]-2-methyl-phenoxy}-2-methyl-propionic acid]
 |  |  | 124.6 to 126.7 °C | Cc1cc(OCCCC#Cc2ccc(OC(F)(F)F)cc2)ccc1OCC(=O)O [Example 20, {2-Methyl-4-[5-(4-trifluoromethoxy-phenyl)-pent-4-ynyloxy]-phenoxy}-acetic acid]
 |  |  | 106 to 107 °C (dec.) | Cc1cc(OCCCC#Cc2ccc(Cl)c(F)c2)ccc1OC(C)(C)C(=O)O [Example 27, 2-{4-[5-(4-Chloro-3-fluoro-phenyl)-pent-4-ynyloxy]-2-methyl-phenoxy}-2-methyl-propionic acid]
 |  |  | 95 to 97 °C (dec.) | Cc1cc(OCCCC#Cc2cnc(C(F)(F)F)nc2)ccc1OC(C)(C)C(=O)O [Example 28, 2-Methyl-2-{2-methyl-4-[5-(2-trifluoromethyl-pyrimidin-5-yl)-pent-4-ynyloxy]-phenoxy}-propionic acid]
 |  |  | 127 to 128 °C (dec.) | CC(C)(Oc1ccc(CNC(=O)CCC#Cc2ccc(OC(F)(F)F)cc2)cc1)C(=O)O [Example 29, 2-Methyl-2-(4-{[5-(4-trifluoromethoxy-phenyl)-pent-4-ynoylamino]-methyl}-phenoxy)-propionic acid]
 |  |  | 65.5 to 68.5 °C | CC(C)(Oc1ccc(OCCCC#Cc2ccc(OC(F)(F)F)cc2)c(F)c1)C(=O)O [Example 32, 2-{3-Fluoro-4-[5-(4-trifluoromethoxy-phenyl)-pent-4-ynyloxy]-phenoxy}-2-methyl-propionic acid]
 |  |  | 116 to 118 °C | Cc1c(OC(C)(C)C(=O)O)ccc(OCCCC#Cc2ccc(OC(F)(F)F)cc2)c1F [Example 33, 2-{3-Fluoro-2-methyl-4-[5-(4-trifluoromethoxy-phenyl)-pent-4-ynyloxy]-phenoxy}-2-methyl-propionic acid]
